In publication PMC8496750, “Identification of the organic anion transporting polypeptides responsible for the hepatic uptake of the major metabolite of epyrifenacil, S‐3100‐CA, in mice” (Pharmacology Research & Perspectives, 2021):

Legend:
[1] = Blood ^14C‐concentrations study; format: in vivo, Crl:CD1(ICR) mice; conditions: 1 mg/kg single oral
Method: Crl:CD1(ICR) mice at the age of 7 weeks were purchased from Charles River Laboratories Japan, Inc., Hino Breeding Center. The mice at the age of 8 or 9 weeks were dosed after completing a 7‐day quarantine period and an additional 0‐ to 7‐day acclimatization period. All animal experiments were conducted in accordance with the Guidance for the Care and Use of Laboratory Animals in our laboratory, which corresponds to the Guidelines for Proper Conduct of Animal Experiments (Science Council of Japan). Animals were maintained under constant environmental conditions: room temperature, 21−25°C; relative humidity, 55% ±15%; ventilation, 10 air exchanges per hour; and artificial lighting, from 8:00 am to 8:00 pm. The animals were provided with pelleted diet and water ad libitum. […] All animals were euthanized by bleeding from the abdominal artery under anesthesia.
[^14C]Epyrifenacil was isotopically diluted with the unlabeled test compound to adjust the specific activity to 5.00 MBq/mg. After evaporation of the solvent under nitrogen gas flow, labeled material was suspended in 0.5% (w/v) methylcellulose solution at a concentration of 1 mg/5 ml by grinding in a mortar. The suspension was stored frozen until the start of dosing. […] These dosing suspensions were stored in a refrigerator until dosing commenced.
Two mice per sex at 8 weeks old were given a single oral dose of [^14C]epyrifenacil at 1 mg/kg. Approximately 0.06–0.08 g of blood sample was periodically taken from the saphenous vein at 1, 2, 4, and 8 h after administration, and transferred to vials to measure the radioactivity in whole blood. […] AUC0‐∞ was calculated as the sum of AUC0‐8 h and AUC8 h‐∞. AUC0‐8 h was obtained using a trapezoidal rule, and AUC8 h‐∞ was calculated with a mono‐exponential equation describing the ^14C‐disappearance phase.

[2] = parameters: method as in PMID 34908893; conditions: rats; 90‐day; cited from earlier work
mouse Oatp1a1 = target: T1, mouse Oatp1a1 (Mus musculus, UniProt Q9QXZ6); experiment: in vitro; conditions: 293FT cells transiently transfected with mouse Oatp1a1, probe radiolabeled S‐3100‐CA
T1 sequence (Q9QXZ6 1-670): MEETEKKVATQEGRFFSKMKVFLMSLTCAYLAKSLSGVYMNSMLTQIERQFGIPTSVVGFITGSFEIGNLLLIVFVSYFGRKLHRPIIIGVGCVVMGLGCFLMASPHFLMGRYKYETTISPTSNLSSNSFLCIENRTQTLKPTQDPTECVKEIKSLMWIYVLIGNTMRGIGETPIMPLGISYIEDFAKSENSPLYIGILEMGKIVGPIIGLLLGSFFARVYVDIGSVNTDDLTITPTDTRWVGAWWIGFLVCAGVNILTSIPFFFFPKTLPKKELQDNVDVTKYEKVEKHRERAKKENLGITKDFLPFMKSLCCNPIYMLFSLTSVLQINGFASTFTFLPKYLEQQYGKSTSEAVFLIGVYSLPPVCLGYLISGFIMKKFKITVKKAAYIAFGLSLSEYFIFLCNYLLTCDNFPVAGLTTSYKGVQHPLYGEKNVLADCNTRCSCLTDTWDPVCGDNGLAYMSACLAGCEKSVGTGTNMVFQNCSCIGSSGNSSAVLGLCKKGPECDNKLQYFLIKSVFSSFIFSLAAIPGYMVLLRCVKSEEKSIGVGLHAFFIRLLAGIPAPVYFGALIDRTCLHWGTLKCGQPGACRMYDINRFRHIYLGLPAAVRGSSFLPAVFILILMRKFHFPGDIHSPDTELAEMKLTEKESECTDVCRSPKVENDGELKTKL
Method: 293FT cells were purchased from Thermo Fisher Scientific, Inc.. The cells were grown in Dulbecco's modified Eagle medium (supplemented with 4.5 g/L glucose and 2 mM L‐glutamine) at 37°C, 5% CO2, and 95% humidity. The cells were passaged 3 times per week by harvesting cells using trypsin and plating at a density of 1.0 × 10^4 cells/cm^2 in a 10 cm cell culture plate for maintenance culture. The 293FT cells were detached using trypsin and re‐seeded at a density of 2.5 × 10^4 cells/cm^2 in BioCoat™ Collagen I 6‐well plates (Corning Inc.) for transfection and then treated with 1.2 μg of plasmid vector and 3.2 μl of Lipofectamine™ 2000 Transfection Reagent (Thermo Fisher Scientific, Inc.) according to the manufacturer's instructions. After a 3‐h treatment, the transfection medium was replaced with a fresh cell culture medium and incubated at 37°C with 95% humidity and 5% CO2 until ready for the assay.
Transport experiments were conducted approximately 24 h post‐transfection. The experiments were initiated by aspirating culture medium and addition of pre‐warmed radiolabeled substrate solution (final 1.0% of acetonitrile or 0.9% of ethanol in phosphate‐buffered saline (PBS[−])) to each well. After a 10‐min incubation, cells were washed twice with 1 ml of ice‐cold PBS(−) and lysed with 700 μl of 1.0 M NaOH for 3 h or more at room temperature. The lysate was transferred to a 1.5‐ml tube, and neutralized with 350 μl of 2.0 M HCl and 350 μl of 2.0% sodium dodecyl sulfate (SDS) solution. From the lysate, 1.0 ml was transferred to a vial containing 10 ml of Emulsifier Scintillator Plus to measure the radioactivity in the LSC. The protein concentration of the cell lysate was also measured using a Pierce™ BCA Protein Assay Kit (Thermo Fisher Scientific, Inc.), which was used to normalize, according to the cell number, the radioactivity in the cell lysate extract. The protein assay was performed in duplicate. Each sample type was assayed in triplicate wells, and each run was performed twice. […] Each sample type was assayed in triplicate wells.

Structure (SMILES)	^14C‐Concentration in blood ([1]; 1 h, Female Animal_1)	^14C‐Concentration in blood ([1]; 1 h, Female Animal_2)	^14C‐Concentration in blood ([1]; 1 h, Male Animal_1)	^14C‐Concentration in blood ([1]; 1 h, Male Animal_2)	^14C‐Concentration in blood ([1]; 2 h, Female Animal_1)	^14C‐Concentration in blood ([1]; 2 h, Female Animal_2)	^14C‐Concentration in blood ([1]; 2 h, Male Animal_1)	^14C‐Concentration in blood ([1]; 2 h, Male Animal_2)	^14C‐Concentration in blood ([1]; 4 h, Female Animal_1)	^14C‐Concentration in blood ([1]; 4 h, Female Animal_2)	^14C‐Concentration in blood ([1]; 4 h, Male Animal_1)	^14C‐Concentration in blood ([1]; 4 h, Male Animal_2)	^14C‐Concentration in blood ([1]; 8 h, Female Animal_1)	^14C‐Concentration in blood ([1]; 8 h, Female Animal_2)	^14C‐Concentration in blood ([1]; 8 h, Male Animal_1)	^14C‐Concentration in blood ([1]; 8 h, Male Animal_2)	C max of ^14C in blood ([1]; female mice)	C max of ^14C in blood ([1]; male mice)	Hepatocyte injury [2]	inhibition at 10 min, 10 µM (mouse Oatp1a1) [%]
CCOC(=O)COc1ncccc1Oc1cc(-n2c(=O)cc(C(F)(F)F)n(C)c2=O)c(F)cc1Cl [Epyrifenacil, ethyl[(3‐{2‐chloro‐4‐fluoro‐5‐[3‐methyl‐2,6‐dioxo‐4‐(trifluoromethyl)‐3,6‐dihydropyrimidin‐1(2H)‐yl]phenoxy}pyridin‐2‐yl)oxy]acetate]	0.127 µg eq. of epyrifenacil/g	0.073 µg eq. of epyrifenacil/g	0.030 µg eq. of epyrifenacil/g	0.030 µg eq. of epyrifenacil/g	0.111 µg eq. of epyrifenacil/g	0.064 µg eq. of epyrifenacil/g	0.031 µg eq. of epyrifenacil/g	0.034 µg eq. of epyrifenacil/g	0.076 µg eq. of epyrifenacil/g	0.060 µg eq. of epyrifenacil/g	0.028 µg eq. of epyrifenacil/g	0.051 µg eq. of epyrifenacil/g	0.045 µg eq. of epyrifenacil/g	0.061 µg eq. of epyrifenacil/g	0.024 µg eq. of epyrifenacil/g	0.033 µg eq. of epyrifenacil/g	0.100 μg eq. of epyrifenacil/g	0.040 μg eq. of epyrifenacil/g	produced hepatocyte injury	
CO[C@H]1/C=C/O[C@@]2(C)Oc3c(C)c(O)c4c(O)c(c(/C=N/N5CCN(C)CC5)c(O)c4c3C2=O)NC(=O)/C(C)=C\C=C\[C@H](C)[C@H](O)[C@@H](C)[C@@H](O)[C@@H](C)[C@H](OC(C)=O)[C@@H]1C [RIF, Rifampicin]																				> 50
